Assays:
α7nAChR-Aβ42 complex = assay: 96-well FITC-solid phase method in lymphocytes; assay type: cell-based, human; details: 1 nM C0105, 30 min; AD lymphocytes or Aβ42-treated control lymphocytes
Excerpt: FIG. 2 illustrates the utility of a 96-well FITC-solid phase assay method to assess, in lymphocytes from AD patients and control subjects, levels of 1) the FLNA-α7nAChR association 2) the FLNA-TLR4 association and 3) α7nAChR-Aβ42 complexes. The top two panels show α7nAChR and TLR4 levels detected using respective FITC-anti-α7nAChR or FITC-anti-TLR4 antibodies after capturing FLNA coupled to α7nAChR and TLR4, respectively, with an anti-FLNA antibody coated on the microtiter solid phase plate.
To prepare lymphocytes, 7 ml of venous blood was collected into an EDTA-containing collecting tube or S-monovette (Sarstedt). Collected blood (6 ml) was layered onto 6 ml of Histopaque®-1077 (Sigma) at 25° C., and the anticoagulated blood was centrifuged at 400×g for 30 minutes (25° C.) to yield plasma (top layer) and lymphocytes (opaque interface). The lymphocytes were washed twice by mixing with 6 ml of oxygenated K-R followed by centrifugation at 250×g for 10 minutes and resuspension. […]
After two 1-minute washes with 50 mM Tris HCl (pH 7.4), each well was incubated in 0.5 μg/well FITC-conjugated anti-mouse IgG (human and mouse absorbed) for 1 hour at 25° C. Plates were washed twice with 200 μl ice-cold Tris HCl, pH 7.4 and the residual FITC-Aβ42 signals were determined by multimode plate reader, DTX880 (Beckman). […]

[1] = target: FLNA association with TLR4 (Homo sapiens, UniProt P21333); assay: Postmortem human brain tissue slices, anti-FLNA immunoprecipitation / Western blot; assay type: cell-based; details: 0.1 and 1 nM C0105, 1 hour; postmortem AD and Aβ42-treated control FCX tissue
Protocol: (§1) Blots were analyzed by densitometric quantitation (FIG. 3B and FIG. 3D). […] Percent inhibition is depicted in FIG. 3C and FIG. 3E. n=11.
(§2) Postmortem brain tissues FCX from patients with clinically diagnosed sporadic AD and control tissues from normal, age-matched, neurologically normal individuals were obtained from the Harvard Brain Tissue Resource Center (HBTRC, Belmont, Mass.) and UCLA Brain Tissue Resource Center (UBTRC, Los Angeles, Calif.). Both HBTRC and UBTRC are supported in part by the National Institute of Health. The postmortem time intervals for collecting these brains were ≤13 hour (mean postmortem intervals for collection of AD and control brain samples were 6.0±0.9 hour and 5.8±0.8 hour, respectively). Diagnostic neuropathological examination was conducted on fixed sections stained with hematoxylin and eosin stain and with modified Bielschowsky silver staining [Yamamoto et al., Neuropathol Appl Neurobiol 12, 3-9 (1986)] to establish any disease diagnosis according to defined criteria [Hyman et al., J Neuropathol Exp Neurol 56, 1095-1097 (1997)] and brain tissue from age-matched controls was similarly screened.
(§3) Following centrifugation and two additional washes with 1 ml ice-cold K-R, brain slices were suspended in 1 ml K-R.
(§4) Incubation continued for 1 hour in the dark. […]

[2] = target: FLNA association with α7nAChR (Homo sapiens, UniProt P21333); assay: as above; assay type: cell-based; details: 0.1 and 1 nM C0105, 1 hour; postmortem AD and Aβ42-treated control FCX tissue
Protocol: as §1, §2, §3, §4

[3] = target: FLNA association with TLR4 (Mus musculus, UniProt Q8BTM8); assay: ICV Aβ42 infusion mouse model, synaptosome co-immunoprecipitation; details: 10 mg/kg C0105 i.p. twice daily, 2 weeks; prefrontal cortex and hippocampus
Chain of FLNA association with TLR4 (Mus musculus, UniProt Q8BTM8) (Q8BTM8 2-2647 limits assumed): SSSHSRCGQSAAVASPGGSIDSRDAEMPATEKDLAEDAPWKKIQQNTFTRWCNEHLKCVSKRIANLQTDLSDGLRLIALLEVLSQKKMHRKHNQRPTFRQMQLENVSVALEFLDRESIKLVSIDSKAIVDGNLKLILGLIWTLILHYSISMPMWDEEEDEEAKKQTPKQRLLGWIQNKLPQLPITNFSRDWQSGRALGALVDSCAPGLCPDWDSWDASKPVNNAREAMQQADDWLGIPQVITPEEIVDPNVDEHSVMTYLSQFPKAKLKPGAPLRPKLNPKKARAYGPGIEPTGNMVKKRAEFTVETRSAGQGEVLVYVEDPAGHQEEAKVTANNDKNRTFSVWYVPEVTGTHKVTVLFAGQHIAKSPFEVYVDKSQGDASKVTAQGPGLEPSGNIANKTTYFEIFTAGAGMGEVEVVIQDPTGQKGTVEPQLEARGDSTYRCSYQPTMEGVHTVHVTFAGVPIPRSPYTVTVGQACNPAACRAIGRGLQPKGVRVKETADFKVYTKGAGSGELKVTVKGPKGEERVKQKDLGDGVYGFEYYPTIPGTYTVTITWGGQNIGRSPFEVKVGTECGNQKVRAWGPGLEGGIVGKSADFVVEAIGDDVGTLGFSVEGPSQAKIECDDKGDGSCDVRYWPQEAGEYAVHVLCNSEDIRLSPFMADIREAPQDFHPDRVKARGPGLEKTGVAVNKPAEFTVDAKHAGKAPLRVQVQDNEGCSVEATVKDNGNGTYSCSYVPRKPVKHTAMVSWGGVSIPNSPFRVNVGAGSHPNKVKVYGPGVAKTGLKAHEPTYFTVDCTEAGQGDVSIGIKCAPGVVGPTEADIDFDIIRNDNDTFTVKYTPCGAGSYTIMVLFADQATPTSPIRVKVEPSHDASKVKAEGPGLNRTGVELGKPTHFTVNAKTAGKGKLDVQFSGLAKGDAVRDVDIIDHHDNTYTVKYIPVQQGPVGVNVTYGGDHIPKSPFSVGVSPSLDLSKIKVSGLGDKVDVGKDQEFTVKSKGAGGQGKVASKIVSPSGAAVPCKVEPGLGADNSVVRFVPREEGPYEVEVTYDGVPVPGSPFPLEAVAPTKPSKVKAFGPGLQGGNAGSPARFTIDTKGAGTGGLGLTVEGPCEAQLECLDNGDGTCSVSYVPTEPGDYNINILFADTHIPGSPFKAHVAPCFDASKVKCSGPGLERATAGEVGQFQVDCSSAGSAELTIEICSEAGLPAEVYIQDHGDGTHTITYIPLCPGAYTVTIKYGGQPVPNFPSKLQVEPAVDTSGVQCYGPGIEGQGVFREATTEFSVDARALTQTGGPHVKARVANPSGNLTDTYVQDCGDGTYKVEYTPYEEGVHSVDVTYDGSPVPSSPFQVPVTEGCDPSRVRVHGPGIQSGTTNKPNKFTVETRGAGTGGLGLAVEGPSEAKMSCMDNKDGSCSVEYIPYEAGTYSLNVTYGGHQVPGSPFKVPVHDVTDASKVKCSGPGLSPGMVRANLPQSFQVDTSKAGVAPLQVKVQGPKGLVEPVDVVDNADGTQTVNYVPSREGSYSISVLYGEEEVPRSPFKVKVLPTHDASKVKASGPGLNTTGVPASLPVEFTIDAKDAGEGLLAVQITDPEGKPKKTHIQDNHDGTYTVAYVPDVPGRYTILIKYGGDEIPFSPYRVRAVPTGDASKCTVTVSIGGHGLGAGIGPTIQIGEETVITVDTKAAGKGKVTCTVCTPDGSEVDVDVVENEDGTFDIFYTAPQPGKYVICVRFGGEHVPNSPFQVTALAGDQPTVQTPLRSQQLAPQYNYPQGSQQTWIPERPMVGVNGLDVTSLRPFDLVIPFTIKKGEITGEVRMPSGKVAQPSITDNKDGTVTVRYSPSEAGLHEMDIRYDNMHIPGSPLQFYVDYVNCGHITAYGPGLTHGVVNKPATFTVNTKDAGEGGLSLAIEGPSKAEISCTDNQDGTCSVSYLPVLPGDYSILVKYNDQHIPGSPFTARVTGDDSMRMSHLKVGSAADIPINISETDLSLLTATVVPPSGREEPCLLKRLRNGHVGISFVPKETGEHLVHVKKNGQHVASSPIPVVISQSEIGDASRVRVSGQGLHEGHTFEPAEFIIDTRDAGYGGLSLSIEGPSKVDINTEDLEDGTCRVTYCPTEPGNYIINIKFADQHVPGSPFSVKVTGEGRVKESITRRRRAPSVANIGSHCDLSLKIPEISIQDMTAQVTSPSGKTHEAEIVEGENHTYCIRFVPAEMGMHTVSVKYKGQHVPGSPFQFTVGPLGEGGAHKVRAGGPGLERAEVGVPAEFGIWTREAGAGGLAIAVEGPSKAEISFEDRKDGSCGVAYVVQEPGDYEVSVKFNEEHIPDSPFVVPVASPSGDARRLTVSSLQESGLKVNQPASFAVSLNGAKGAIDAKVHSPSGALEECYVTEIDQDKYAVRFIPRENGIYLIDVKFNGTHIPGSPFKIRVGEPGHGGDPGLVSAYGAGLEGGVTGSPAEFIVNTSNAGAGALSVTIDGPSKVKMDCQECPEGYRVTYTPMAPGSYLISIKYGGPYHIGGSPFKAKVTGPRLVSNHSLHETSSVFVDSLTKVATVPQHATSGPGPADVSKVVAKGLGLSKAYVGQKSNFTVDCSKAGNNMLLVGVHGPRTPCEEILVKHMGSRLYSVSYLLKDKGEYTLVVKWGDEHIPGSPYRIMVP

What does the source list for `CN1CCC2(CC1)NCC(=O)N2Cc1ccccc1` [Compound C0105]?
Effect on α7nAChR-Aβ42 complexes (in words) (α7nAChR-Aβ42 complex): reduce all three associations; Effect on FLNA association with TLR4 (in words) [1]: reduced these associations; Effect on FLNA association with α7nAChR (in words) [2]: reduced these associations; Effect on Aβ42-induced FLNA association with TLR4 (in words) [3]: reduced Aβ42-induced increases in FLNA associations
